Holding throughout (assay type): physicochemical
A short description of data set [1]: Equilibrium solubility in aqueous media at different pH and in biorelevant media (UPLC-UV-MS). Particulars: for Equilibrium solubility Conc.: 24 h; for solubility thermodynamic at 24 h: thermodynamic from solid, read-out: Equilibrium solubility Conc. As to the method: Discard the first ˜3.5 mL then collect 3 aliquots (˜0.5 mL) to be analyzed. • Quantification of the 3 aliquots by UPLC-UV-MS with the appropriate calibration curve.
• Instrument: Waters Acquity H-Class with PDA and QDa detectors • Column: Waters Acquity BEH C18, 1.7 μm, 2.1×50 mm • Flow rate: 0.65 mL/min • UV detection: 254 nm or 410 nm • Column temperature: 40° C.±2° C. • Sample temperature: 23° C.±2° C. • Injection volumes: 0.4 μL (for concentration between 1-500 μg/mL) and 9 μL (for concentration between 0.050-1 μg/mL) • Mobile phase: gradient with solutions A and B prepared as follows
• Ionisation mode: ESI+/ESI− • Source temperature: 600° C. • Capillary voltage: 0.8 kV • Cone voltage: +20V/−20V
Two standard calibration curves (chromatographic UV peak area vs. concentration) are established in DMSO at 254 nm or 410 nm for each solid form and for the solid dispersion, one between 0.025 or 0.050 μg/mL and 1 μg/mL (injection volume=9 μL) and another between 1 μg/mL and 500 μg/mL (injection volume=0.4 μL). The calibration curves are linear in the whole investigated concentration range.

The nature of data set [2]: pH-dependent solubility of compound (1) in aqueous media. From the text: Consequently, the in vivo absorption of compound (1) is affected by gastric pH. […] Such a decrease may occur to different extents in different patients due to inter-patient stomach pH variability.
Data set [3] in a line: Organic solubility screening in DCM:methanol solvent blends (visual observation). As for the experimental part:
Solubility is determined by visual observation.

Setting [4] is: Acetate Buffer pH 4, room temperature.
The mark [5] stands for this setting: Phosphate Buffer pH 7.4, room temperature.

≈ marks a conversion by molar mass, not a printed value. Where two headings read alike, the source gives them in different places. Where only a bound is given, the exact number is not on record here.

In the case of `C=CC(=O)NC1CCN(c2ncc3ncnc(Nc4ccc(Oc5ccc6c(c5)ncn6C)c(C)c4)c3n2)CC1` [compound (1) Form III, N-{1-[8-({3-methyl-4-[(1-methyl-1H-1,3-benzodiazol-5-yl)oxy]phenyl}amino)-[1,3]diazino[5,4-d]pyrimidin-2-yl]piperidin-4-yl}prop-2-enamide], the figures for the “Equilibrium solubility Conc.” value in data set [1] (setting [4]) and in data set [1] (setting [5]) were 6.6 µg/mL and 0.056 µg/mL, respectively. For the same compound, the solubility thermodynamic at 24 h in data set [1] (FaSSIF, 37 °C, pH 6.5, fassif, FaSSIF pH 6.5, 37° C.) is 0.803 µg/mL (≈ 1.5 µM); in data set [1] (FeSSIF, 37 °C, pH 5, fessif, FeSSIF pH 5.0, 37° C.), 49 µg/mL (≈ 91.5 µM); in data set [1] (HCl 0.01N, pH 2, simulated gastric fluid, HCl 0.01N pH 2, room temperature) it was 1320 µg/mL (≈ 2470 µM); in data set [1] (acetate buffer, pH 5, aqueous buffer, Acetate Buffer pH 5, room temperature), 0.126 µg/mL (≈ 0.235 µM); in data set [1] (phosphate buffer, pH 6.8, aqueous buffer, Phosphate Buffer pH 6.8, room temperature) it was 0.025 µg/mL (≈ 0.0467 µM).

Consider `C=CC(=O)NC1CCN(c2ncc3ncnc(Nc4ccc(Oc5ccc6c(c5)ncn6C)c(C)c4)c3n2)CC1` [compound (1) Form IV, N-{1-[8-({3-methyl-4-[(1-methyl-1H-1,3-benzodiazol-5-yl)oxy]phenyl}amino)-[1,3]diazino[5,4-d]pyrimidin-2-yl]piperidin-4-yl}prop-2-enamide], for which the “Equilibrium solubility Conc.” value in data set [1] (setting [4]) is 3 µg/mL; in data set [1] (Acetate Buffer pH 5, room temperature), 0.075 µg/mL; in data set [1] (FaSSIF pH 6.5, 37° C.), 0.726 µg/mL; in data set [1] (FeSSIF pH 5.0, 37° C.) it was 44 µg/mL; in data set [1] (HCl 0.01N pH 2, room temperature), 761 µg/mL; in data set [1] (Phosphate Buffer pH 6.8, room temperature), 0.027 µg/mL. Further, the “Equilibrium solubility Conc.” value in data set [1] (setting [5]) stood at 0.018 µg/mL.

On to `C=CC(=O)NC1CCN(c2ncc3ncnc(Nc4ccc(Oc5ccc6c(c5)ncn6C)c(C)c4)c3n2)CC1` [compound (1), N-{1-[8-({3-methyl-4-[(1-methyl-1H-1,3-benzodiazol-5-yl)oxy]phenyl}amino)-[1,3]diazino[5,4-d]pyrimidin-2-yl]piperidin-4-yl}prop-2-enamide], for which, in data set [2], the “decrease in solubility between pH 1.2 and pH 6.8” value is “about 10^5 fold”. Also, the Solubility in data set [3] (DCM:methanol 70:30) was above 16.8 wt %; in data set [3] (DCM:methanol 80:20), above 18.7 wt %; in data set [3] (DCM:methanol 90:10), above 17.1 wt %.

The values are drawn from patent publication US20240226103A1, “SOLID DISPERSION OF A HER2 INHIBITOR” (Boehringer Ingelheim International GmbH, priority 2022, published 2024).
